Experimental data reported in ChEMBL document CHEMBL5113400, “Design, synthesis, and biological evaluation of trizole-based heteroaromatic derivatives as Bcr-Abl kinase inhibitors” (Eur J Med Chem, 2022).

Tests used:
Bcr/Abl fusion protein [1] = target: Bcr/Abl fusion protein (Homo sapiens, UniProt P00519); assay: Inhibition of wild type Bcr-Abl (unknown origin) incubated for 1 hr in presence of ATP by ADP-Glo kinase assay; format: protein assay
Bcr/Abl fusion protein [2] = target: Bcr/Abl fusion protein (Homo sapiens, UniProt P00519, T315I); assay: Inhibition of Bcr-Abl T315I mutant (unknown origin) incubated for 1 hr in presence of ATP by ADP-Glo kinase assay; format: protein assay
K562 = assay: Antiproliferative activity against human K562 cells assessed as inhibition of cell growth incubated for 48 hrs by MTT assay; format: functional, cell-based; conditions: K562, 48 h
BaF3 = assay: Antiproliferative activity against mouse BaF3 cells expressing Bcr-Abl T315I mutant assessed as inhibition of cell growth at 30 uM incubated for 72 hrs by CellTiter-Glo luminescent assay; format: functional
K562/Adr [3] = assay: Antiproliferative activity against human Adriamycin-resistant K562/Adr cells assessed as inhibition of cell growth at 30 uM incubated for 48 hrs by MTT assay; format: functional
K562/Adr [4] = assay: Antiproliferative activity against human Adriamycin-resistant K562/Adr cells assessed as inhibition of cell growth incubated for 48 hrs by MTT assay; format: functional, cell-based

| SMILES | IC50 (Bcr/Abl fusion protein [1]) [nM] | IC50 (Bcr/Abl fusion protein [2]) [nM] | IC50 (K562) [nM] | inhibition at 30 µM (BaF3) [%] | inhibition at 30 µM (K562/Adr [3]) [%] | IC50 (K562/Adr [4]) [nM] |
| --- | --- | --- | --- | --- | --- | --- |
| CC(=O)Nc1n[nH]c2cc(-c3cn([C@@H]4CN[C@H](C(=O)Nc5ccc(Cl)c(C(F)(F)F)c5)C4)nn3)ccc12 | 28.2 | 121 | 15500 | 21.8 | 23.4 |  |
| CC(=O)Nc1n[nH]c2cc(-c3cn([C@@H]4CN[C@H](C(=O)Nc5ccc(Br)cc5)C4)nn3)ccc12 | 5.85 | 343 | 3830 | 21.8 |  | 1000 |
| Nc1n[nH]c2cc(-c3cn([C@@H]4CN[C@H](C(=O)Nc5ccc(Br)cc5)C4)nn3)ccc12 | 43.6 | 310 | 10300 |  | 26.8 |  |
| CC(=O)Nc1ccc(-c2cn([C@@H]3CN[C@H](C(=O)Nc4ccc(Cl)c(C(F)(F)F)c4)C3)nn2)cn1 | 3.45 | 127 | 8980 | 26.5 | 33.6 |  |
| CC(C)(C)OC(=O)N1C[C@@H](n2cc(-c3ccc(N)nc3)nn2)C[C@H]1C(=O)Nc1ccc(Cl)c(C(F)(F)F)c1 | 0.94 | 125 | 4710 | 66.7 | 48.6 |  |
| CC(C)(C)OC(=O)N1C[C@@H](n2cc(-c3ccc4c(N)n[nH]c4c3)nn2)C[C@H]1C(=O)Nc1ccc(Cl)c(C(F)(F)F)c1 | 21.9 | 150 | 10500 | 53.8 | 37.1 |  |
| Nc1nc2ccc(-c3cn([C@@H]4CN[C@H](C(=O)Nc5ccc(Cl)cc5Cl)C4)nn3)nc2s1 | 9.45 | 118 | 24500 | 19.5 | 42.2 |  |
| CC(C)(C)OC(=O)N1C[C@@H](n2cc(-c3ccc4nc(N)sc4n3)nn2)C[C@H]1C(=O)Nc1ccc(Br)cc1 | 6.88 | 25.2 | 29200 |  | 31.7 |  |
| CC(=O)Nc1nc2ccc(-c3cn([C@@H]4CN[C@H](C(=O)Nc5ccc(Cl)c(C(F)(F)F)c5)C4)nn3)nc2s1 | 23.5 | 59.6 | 10000 | 44.8 |  |  |
| CC(=O)Nc1nc2ccc(-c3cn([C@@H]4CN[C@H](C(=O)Nc5ccc(Br)cc5)C4)nn3)nc2s1 | 6.99 | 169 | 5020 | 40 | 32 |  |
| CC(C)(C)OC(=O)N1C[C@@H](n2cc(-c3ccc4nc(N)sc4n3)nn2)C[C@H]1C(=O)Nc1ccc(Cl)c(C(F)(F)F)c1 | 10.6 | 667 | 10800 | 52.3 | 27.4 |  |
| O=C(Nc1n[nH]c2cc(-c3cn([C@@H]4CN[C@H](C(=O)Nc5ccc(Br)cc5)C4)nn3)ccc12)C1CC1 | 5.53 | 144 | 8080 | 20 | 39.6 |  |
| O=C(Nc1ccc(Cl)c(C(F)(F)F)c1)[C@@H]1C[C@H](n2cc(-c3cncc(C(=O)N4CCOCC4)c3)nn2)CN1 | 60.1 | 801 | 28800 |  | 25.6 |  |
| CCN(CC)C(=O)c1cncc(-c2cn([C@@H]3CN[C@H](C(=O)Nc4ccc(Cl)c(C(F)(F)F)c4)C3)nn2)c1 | 14.5 | 261 | 27600 |  | 32.4 |  |
| CC(=O)Nc1nc2ccc(-c3cn([C@@H]4CN[C@H](C(=O)Nc5ccc(F)c(F)c5)C4)nn3)nc2s1 | 202 | 1890 | 63000 |  | 38.4 |  |
| O=C(Nc1n[nH]c2cc(-c3cn([C@@H]4CN[C@H](C(=O)Nc5ccc(Cl)cc5Cl)C4)nn3)ccc12)C1CC1 | 0.83 | 200 | 5340 | 27.6 | 43.3 |  |

| SMILES | IC50 (Bcr/Abl fusion protein [1]) [nM] | IC50 (Bcr/Abl fusion protein [2]) [nM] | IC50 (K562) [nM] | inhibition at 30 µM (BaF3) [%] | inhibition at 30 µM (K562/Adr [3]) [%] | IC50 (K562/Adr [4]) [nM] |
| --- | --- | --- | --- | --- | --- | --- |
| O=C(Nc1nc2ccc(-c3cn([C@@H]4CN[C@H](C(=O)Nc5ccc(F)c(F)c5)C4)nn3)nc2s1)C1CC1 | 30.1 | 1340 | 40700 |  | 29.5 |  |
| O=C(Nc1nc2ccc(-c3cn([C@@H]4CN[C@H](C(=O)Nc5ccc(Cl)c(C(F)(F)F)c5)C4)nn3)nc2s1)C1CC1 | 24.6 | 110 | 16200 | 78.8 | 10.4 |  |
| CN(C)CCNC(=O)c1cncc(-c2cn([C@@H]3CN[C@H](C(=O)Nc4ccc(Cl)c(C(F)(F)F)c4)C3)nn2)c1 | 29.2 | 349 | 21000 | 21.8 | 14.5 |  |
| CC(C)(C)OC(=O)N1C[C@@H](n2cc(-c3ccc4nc(N)sc4n3)nn2)C[C@H]1C(=O)Nc1ccc(Cl)cc1Cl | 14.7 | 410 | 8940 | 86.7 | 28.3 |  |
| O=C(Nc1nc2ccc(-c3cn([C@@H]4CN[C@H](C(=O)Nc5ccc(Br)cc5)C4)nn3)nc2s1)C1CC1 | 10.4 | 33.3 | 8160 | 66.5 |  | 48200 |
| Nc1n[nH]c2cc(-c3cn([C@@H]4CN[C@H](C(=O)Nc5ccc(Cl)c(C(F)(F)F)c5)C4)nn3)ccc12 | 15 | 137 | 8320 | 31.2 | 48.2 |  |
| O=C(Nc1ccc(-c2cn([C@@H]3CN[C@H](C(=O)Nc4ccc(Cl)c(C(F)(F)F)c4)C3)nn2)cn1)C1CC1 | 0.65 | 338 | 8770 | 36.4 | 44.3 |  |
| Nc1nc2ccc(-c3cn([C@@H]4CN[C@H](C(=O)Nc5ccc(Cl)c(C(F)(F)F)c5)C4)nn3)nc2s1 | 15.6 | 24.7 | 26200 |  |  | 187000 |
| Nc1n[nH]c2cc(-c3cn([C@@H]4CN[C@H](C(=O)Nc5ccc(Cl)cc5Cl)C4)nn3)ccc12 | 8.6 | 3670 | 28400 | 19.3 | 29.4 |  |
| Nc1nc2ccc(-c3cn([C@@H]4CN[C@H](C(=O)Nc5ccc(F)c(F)c5)C4)nn3)nc2s1 | 128 | 1590 | 33200 |  | 27.4 |  |
| CC(C)(C)OC(=O)N1C[C@@H](n2cc(-c3ccc4c(N)n[nH]c4c3)nn2)C[C@H]1C(=O)Nc1ccc(Cl)cc1Cl | 60.6 | 1880 | 12200 | 28.7 | 25.6 |  |
| CC(=O)Nc1nc2ccc(-c3cn([C@@H]4CN[C@H](C(=O)Nc5ccc(Cl)cc5Cl)C4)nn3)nc2s1 | 4.8 | 388 | 9670 | 39.5 | 36.1 |  |
| Nc1nc2ccc(-c3cn([C@@H]4CN[C@H](C(=O)Nc5ccc(Br)cc5)C4)nn3)nc2s1 | 27.1 | 178 | 24400 | 27.5 | 35.9 |  |
| CC(C)(C)C(=O)Nc1ccc(-c2cn([C@@H]3CN[C@H](C(=O)Nc4ccc(Cl)c(C(F)(F)F)c4)C3)nn2)cn1 | 41.5 | 3440 | 43800 |  | 19.1 |  |
| CC(C)(C)OC(=O)N1C[C@@H](n2cc(-c3ccc4c(N)n[nH]c4c3)nn2)C[C@H]1C(=O)Nc1ccc(Br)cc1 | 50 | 237 | 3710 | 20.1 | 23 |  |
